In patent US20080167272A1, “Thalidomide metabolites and methods of use” (Auckland Uniservices Limited, priority 2005, published 2008):

Assays:
TNF [1] = assay: Modulation of TNF production in Colon 38 tumour-bearing mice (serum and tumour, ELISA); type: in vivo; conditions: 3 h; for effect on DMXAA-induced tumour TNF level: FIG. 3B
Procedure: Mice with Colon 38 tumours, approximately 5-7 mm in diameter, were divided into groups of 5. One group was untreated. Other groups were treated with DMXAA (25 mg/kg) alone; DMXAA (25 mg/kg)+thalidomide (100 mg/kg), DMXAA (25 mg/kg)+PG (100 mg/kg), DMXAA (25 mg/kg)+PiG (100 mg/kg), DMXAA (25 mg/kg)+CG (100 mg/kg), DMXAA (25 mg/kg)+thalidomide (20 mg/kg), DMXAA (25 mg/kg)+CG (20 mg/kg), and thalidomide, PG, PiG or CG only at 100 and 200 mg/kg. Three hours after treatment, mice were anaesthetized with halothane (NZ Pharmacology Ltd., Christchurch, New Zealand), and blood was collected from the ocular sinus and tumours were excised. Blood was coagulated overnight at 4° C., and then centrifuged for 30 min at 2,000×g and 4° C., and the serum was removed and stored at −80° C. until use. Tumour tissues were weighed and homogenized in 1.5 ml α-minimal essential medium (Gibco, Grand Island, N.Y., USA). The homogenates were centrifuged (2,000×g, 30 min, 4° C.) and supernatant was removed and re-centrifuged (14,000×g, 30 min, 4° C.). The final supernatants were removed and kept at −80° C. until use. TNF levels in serum and supernatants derived from tumour homogenates were assayed for TNF as described in section 4 (below).
(§1) TNF was assayed using a commercially available ELISA kit (OpEIA human or murine TNF kit, PharMingen, San Diego, Calif., USA), according to the manufacturer's instructions. Briefly, samples (100 μl/well) in duplicate together with a serial dilution of TNF (31.25-2000 pg/ml) for the standard curve, were added to flat-bottom 96-well plates pre-coated with immobilised monoclonal anti-TNF antibody and incubated at room temperature for 2 h. The wells were then washed, biotinylated polyclonal antibody to TNF was added, followed by peroxidase-labelled streptavidin, and incubated at room temperature for 1 h. The wells were washed again, and the substrate, tetramethylbenzidine and hydrogen peroxide was added and after 10 min the reaction was stopped with 2 N sulphuric acid. The absorbance at 450 nm was determined using a microtitre plate reader.

TNF [2] = assay: LPS-induced TNF production by HPBL in culture; type: cell-based, human; conditions: FIG. 5
Procedure: Blood (20 ml) each from seven healthy volunteers was collected into heparinized tubes, and was overlayed on top of 10 ml of Ficoll-Paque Plus (Amersham Biosciences AB, Uppsala, Sweden) in 50 ml Falcon polypropylene conical tubes (Becton Dickson Labware, Franklin Lakes, N.J.). The tubes were centrifuged for 30 min at 300×g and 4° C., and the layer of cells was removed and re-suspended at 1×10^6 cells/ml in A-MEM medium supplemented with foetal bovine serum (Moregate BioTech Ltd, Hamilton, New Zealand) (10% v/v), streptomycin sulphate (100 μg/ml) and penicillin-G (100 units/ml) (Sigma, St Louis, Mo., USA). Cells were added to a 24-well plate (Nunc, Kamstrup, Roskilde, Denmark) with LPS (Escherichia coli serotype 055:B5; Sigma, St. Louis, Mo., USA) plus thalidomide or CG at 0.04, 0.2, 1, 5, 25 & 100 μg/ml; or PG or PiG at 1, 5 & 25 μg/ml in a final volume of 1 ml. Wells containing cells only and cells plus LPS only were included as controls. After 12 hours of incubation, supernatants were removed and assayed immediately for TNF as described in section 4.
as §1

Colon 38 tumours = assay: Colon 38 tumour growth in mice, combination with cyclophosphamide; type: in vivo; conditions: CG 100 mg/kg plus cyclophosphamide 220 mg/kg; FIG. 9
Procedure: Mice (C57B1/6 bred at the Animal Resources Unit, University of Auckland, New Zealand) were implanted with Colon 38 tumours, obtained originally from the Mason Research Institute (Auckland, New Zewaland) by transferring 1 mm^3 pieces of the tumour into a subcutaneous opening in the left flank of anaesthetized mice. The mice with tumours were used for growth delay experiments when tumours had reached approximately 3-5 mm in diameter. […] Tumours were measured 2-3 times weekly after treatment and tumour volumes were calculated as 0.52×a^2×b, where a and b are the minor and major axes of the tumour. The arithmetic means and standard errors were calculated for each point, counting cured animals as having zero tumour volume, and expressed as fractions of the pre-treatment volume. Growth delay was determined as the difference in the number of days required for the tumour to reach four times the pre-treatment volume. […]

O=C1CCC(NC(=O)c2ccccc2C(=O)O)C(=O)N1 (stereo not drawn) [CG, 2-{[(2,6-Dioxo-3-piperidinyl)amino]carbonyl}benzoic acid]
effect on DMXAA-induced tumour TNF level (TNF [1]; 20 mg/kg co-administered with DMXAA 25 mg/kg): significantly increased | effect on DMXAA-induced serum TNF level (TNF [1]; 100 mg/kg co-administered with DMXAA 25 mg/kg, FIG. 3A): decreased | effect on DMXAA-induced tumour TNF level (TNF [1]; 100 mg/kg co-administered with DMXAA 25 mg/kg): significantly increased | effect on LPS-induced TNF production (TNF [2]; HPBL, LPS 100 pg/ml, 12 h, all concentrations tested (PG, PiG: 1, 5, 25 μg/ml)): significantly decreased LPS-induced TNF levels in a dose-dependent manner | TNF inhibition in vitro compared with thalidomide (TNF [2]; human cell system): as active as thalidomide | tumour size at day 15 after treatment, combination vs monotherapies (Colon 38 tumours): significantly smaller than those treated with each of the monotherapies
